In ChEMBL document CHEMBL1201862, “PubChem BioAssay data set” (2004):
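The compound was tested at five concentrations on cells cultured in 96-well plates, with a 48-hour exposure period. At the GI50, growth is halved.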 Activity calls are given as the source filed them. Rule as the data show it: active = GI50 up to about 1.1 µM and inactive = higher.

What was measured:
Experiment in all cases: NCI-60 cell line screen, 48 h
TK-10 = tested on: TK-10
EKVX = tested on: EKVX
SK-MEL-28 = tested on: SK-MEL-28
Hs-578T = tested on: Hs-578T
MDA-N = tested on: MDA-N
NCI-H23 = tested on: NCI-H23
SN12C = tested on: SN12C
SK-OV-3 = tested on: SK-OV-3
PC-3 = tested on: PC-3
MOLT-4 = tested on: MOLT-4
SF-268 = tested on: SF-268
COLO 205 = tested on: COLO 205
NCI-H522 = tested on: NCI-H522
M14 = tested on: M14
SNB-19 = tested on: SNB-19
MDA-MB-435 = tested on: MDA-MB-435
A498 = tested on: A498
HL-60 = tested on: HL-60
OVCAR-4 = tested on: OVCAR-4
KM12 = tested on: KM12
HT-29 = tested on: HT-29
SW-620 = tested on: SW-620
UACC-257 = tested on: UACC-257
786-0 = tested on: 786-0
IGROV-1 = tested on: IGROV-1
SF-539 = tested on: SF-539
NCI-H226 = tested on: NCI-H226
LOX IMVI = tested on: LOX IMVI
U-251 = tested on: U-251
HOP-92 = tested on: HOP-92
OVCAR-5 = tested on: OVCAR-5
NCI/ADR-RES = tested on: NCI/ADR-RES
Malme-3M = tested on: Malme-3M
UACC-62 = tested on: UACC-62
NCI-H460 = tested on: NCI-H460
ACHN = tested on: ACHN
SK-MEL-5 = tested on: SK-MEL-5
HCT-15 = tested on: HCT-15
A549 = tested on: A549
HCT-116 = tested on: HCT-116
SF-295 = tested on: SF-295
OVCAR-3 = tested on: OVCAR-3
OVCAR-8 = tested on: OVCAR-8
K562 = tested on: K562
SR = tested on: SR
UO-31 = tested on: UO-31
SK-MEL-2 = tested on: SK-MEL-2
MCF7 = tested on: MCF7
BT-549 = tested on: BT-549
CAKI-1 = tested on: CAKI-1
MDA-MB-231 = tested on: MDA-MB-231
RPMI-8226 = tested on: RPMI-8226
HOP-62 = tested on: HOP-62
T47D = tested on: T47D
HCC 2998 = tested on: HCC 2998
DU-145 = tested on: DU-145
CCRF-CEM = tested on: CCRF-CEM

## CC(N)(/C=C/c1ccccc1)C(=O)O (stereo not given)
TK-10
  GI50: > 100 µM (inactive)
EKVX
  GI50: > 100 µM (inactive)
SK-MEL-28
  GI50: > 100 µM (inactive)
Hs-578T
  GI50: 67.3 µM (inactive)
MDA-N
  GI50: > 100 µM (inactive)
NCI-H23
  GI50: > 100 µM (inactive)
SN12C
  GI50: > 100 µM (inactive)
SK-OV-3
  GI50: > 100 µM (inactive)
PC-3
  GI50: > 100 µM (inactive)
MOLT-4
  GI50: > 100 µM (inactive)
SF-268
  GI50: > 100 µM (inactive)
COLO 205
  GI50: > 100 µM (inactive)
NCI-H522
  GI50: > 100 µM (inactive)
M14
  GI50: > 100 µM (inactive)
SNB-19
  GI50: > 100 µM (inactive)
MDA-MB-435
  GI50: > 100 µM (inactive)
A498
  GI50: > 100 µM (inactive)
HL-60
  GI50: > 100 µM (inactive)
OVCAR-4
  GI50: > 100 µM (inactive)
KM12
  GI50: > 100 µM (inactive)
HT-29
  GI50: > 100 µM (inactive)
SW-620
  GI50: > 100 µM (inactive)
UACC-257
  GI50: > 100 µM (inactive)
786-0
  GI50: > 100 µM (inactive)
IGROV-1
  GI50: > 100 µM (inactive)
SF-539
  GI50: > 100 µM (inactive)
NCI-H226
  GI50: > 100 µM (inactive)
LOX IMVI
  GI50: > 100 µM (inactive)
U-251
  GI50: > 100 µM (inactive)
HOP-92
  GI50: > 100 µM (inactive)
OVCAR-5
  GI50: > 100 µM (inactive)
NCI/ADR-RES
  GI50: > 100 µM (inactive)
Malme-3M
  GI50: > 100 µM (inactive)
UACC-62
  GI50: > 100 µM (inactive)
NCI-H460
  GI50: > 100 µM (inactive)
ACHN
  GI50: > 100 µM (inactive)
SK-MEL-5
  GI50: > 100 µM (inactive)
HCT-15
  GI50: > 100 µM
A549
  GI50: > 100 µM (inactive)
HCT-116
  GI50: > 100 µM (inactive)
SF-295
  GI50: > 100 µM (inactive)
OVCAR-3
  GI50: > 100 µM (inactive)
OVCAR-8
  GI50: > 100 µM (inactive)
K562
  GI50: > 100 µM (inactive)
SR
  GI50: > 100 µM (inactive)
UO-31
  GI50: > 100 µM (inactive)
SK-MEL-2
  GI50: > 100 µM (inactive)
MCF7
  GI50: > 100 µM (inactive)
BT-549
  GI50: > 100 µM (inactive)
CAKI-1
  GI50: > 100 µM (inactive)
MDA-MB-231
  GI50: > 100 µM (inactive)
RPMI-8226
  GI50: > 100 µM (inactive)
HOP-62
  GI50: > 100 µM (inactive)

## CN1CCN(Cc2ccc(C(=S)Nc3ccccc3)s2)CC1
T47D
  GI50: 59.2 µM (inactive)
EKVX
  GI50: 65.3 µM (inactive)
SK-MEL-28
  GI50: 15.5 µM (inactive)
Hs-578T
  GI50: 39.2 µM (inactive)
MDA-N
  GI50: 35.6 µM (inactive)
NCI-H23
  GI50: 18.5 µM (inactive)
SK-OV-3
  GI50: 86.1 µM (inactive)
PC-3
  GI50: 69.7 µM (inactive)
MOLT-4
  GI50: 36.8 µM (inactive)
SF-268
  GI50: > 100 µM (inactive)
COLO 205
  GI50: 22.3 µM (inactive)
NCI-H522
  GI50: 31 µM (inactive)
M14
  GI50: 16.7 µM (inactive)
SNB-19
  GI50: > 100 µM (inactive)
MDA-MB-435
  GI50: 31.9 µM (inactive)
A498
  GI50: 33.7 µM (inactive)
HL-60
  GI50: 19.9 µM (inactive)
OVCAR-4
  GI50: 54.1 µM (inactive)
KM12
  GI50: 36.3 µM (inactive)
HT-29
  GI50: 19.6 µM (inactive)
SW-620
  GI50: 26.7 µM (inactive)
UACC-257
  GI50: 33.5 µM (inactive)
786-0
  GI50: 31.9 µM (inactive)
IGROV-1
  GI50: 10.4 µM (inactive)
SF-539
  GI50: 82.4 µM (inactive)
LOX IMVI
  GI50: 15.7 µM (inactive)
U-251
  GI50: 64.7 µM (inactive)
HCC 2998
  GI50: 33.1 µM (inactive)
OVCAR-5
  GI50: 45.8 µM (inactive)
NCI/ADR-RES
  GI50: 32.9 µM (inactive)
Malme-3M
  GI50: 89.5 µM (inactive)
UACC-62
  GI50: 20.2 µM (inactive)
NCI-H460
  GI50: 36.4 µM (inactive)
ACHN
  GI50: 92 µM (inactive)
SK-MEL-5
  GI50: 17.6 µM (inactive)
HCT-15
  GI50: 21 µM
A549
  GI50: 55 µM (inactive)
HCT-116
  GI50: 42.5 µM (inactive)
DU-145
  GI50: > 100 µM (inactive)
CCRF-CEM
  GI50: 24 µM (inactive)
SF-295
  GI50: 32.3 µM (inactive)
OVCAR-3
  GI50: > 100 µM (inactive)
OVCAR-8
  GI50: 14.5 µM (inactive)
K562
  GI50: 25.9 µM (inactive)
SR
  GI50: 21.2 µM (inactive)
UO-31
  GI50: 36.3 µM (inactive)
SK-MEL-2
  GI50: 41.8 µM (inactive)
MCF7
  GI50: 41.9 µM (inactive)
BT-549
  GI50: 15.9 µM (inactive)
CAKI-1
  GI50: > 100 µM (inactive)
RPMI-8226
  GI50: 28.6 µM (inactive)
HOP-62
  GI50: 93.8 µM (inactive)
